Target: T1, CFTR (Homo sapiens, UniProt P13569, DEL508-508)
T1 construct: Primary CF airway epithelial cells were obtained from the UNC Cystic Fibrosis Tissue Procurement and Cell Culture Core; host or cells: primary CF airway epithelial cells, differentiated at the air-liquid interface
Test: Equivalent current assay in primary CF airway epithelial cells (NAUC, combination with 1st site corrector FDL169 or VX-809)
Format: cell-based
Conditions: 37° C., 24 h

[1] = test compound 1 μM in combination with 1st site corrector VX-809 (3 μM)
[2] = test compound 3 μM in combination with 1st site corrector VX-809 (3 μM)
[3] = test compound 10 μM in combination with 1st site corrector VX-809 (3 μM)
[4] = test compound 1 μM in combination with 1st site corrector FDL169 (3 μM)
[5] = test compound 3 μM in combination with 1st site corrector FDL169 (3 μM)
[6] = test compound 10 μM in combination with 1st site corrector FDL169 (3 μM)

T1 sequence (P13569 with tags, fused parts or gaps DEL508-508): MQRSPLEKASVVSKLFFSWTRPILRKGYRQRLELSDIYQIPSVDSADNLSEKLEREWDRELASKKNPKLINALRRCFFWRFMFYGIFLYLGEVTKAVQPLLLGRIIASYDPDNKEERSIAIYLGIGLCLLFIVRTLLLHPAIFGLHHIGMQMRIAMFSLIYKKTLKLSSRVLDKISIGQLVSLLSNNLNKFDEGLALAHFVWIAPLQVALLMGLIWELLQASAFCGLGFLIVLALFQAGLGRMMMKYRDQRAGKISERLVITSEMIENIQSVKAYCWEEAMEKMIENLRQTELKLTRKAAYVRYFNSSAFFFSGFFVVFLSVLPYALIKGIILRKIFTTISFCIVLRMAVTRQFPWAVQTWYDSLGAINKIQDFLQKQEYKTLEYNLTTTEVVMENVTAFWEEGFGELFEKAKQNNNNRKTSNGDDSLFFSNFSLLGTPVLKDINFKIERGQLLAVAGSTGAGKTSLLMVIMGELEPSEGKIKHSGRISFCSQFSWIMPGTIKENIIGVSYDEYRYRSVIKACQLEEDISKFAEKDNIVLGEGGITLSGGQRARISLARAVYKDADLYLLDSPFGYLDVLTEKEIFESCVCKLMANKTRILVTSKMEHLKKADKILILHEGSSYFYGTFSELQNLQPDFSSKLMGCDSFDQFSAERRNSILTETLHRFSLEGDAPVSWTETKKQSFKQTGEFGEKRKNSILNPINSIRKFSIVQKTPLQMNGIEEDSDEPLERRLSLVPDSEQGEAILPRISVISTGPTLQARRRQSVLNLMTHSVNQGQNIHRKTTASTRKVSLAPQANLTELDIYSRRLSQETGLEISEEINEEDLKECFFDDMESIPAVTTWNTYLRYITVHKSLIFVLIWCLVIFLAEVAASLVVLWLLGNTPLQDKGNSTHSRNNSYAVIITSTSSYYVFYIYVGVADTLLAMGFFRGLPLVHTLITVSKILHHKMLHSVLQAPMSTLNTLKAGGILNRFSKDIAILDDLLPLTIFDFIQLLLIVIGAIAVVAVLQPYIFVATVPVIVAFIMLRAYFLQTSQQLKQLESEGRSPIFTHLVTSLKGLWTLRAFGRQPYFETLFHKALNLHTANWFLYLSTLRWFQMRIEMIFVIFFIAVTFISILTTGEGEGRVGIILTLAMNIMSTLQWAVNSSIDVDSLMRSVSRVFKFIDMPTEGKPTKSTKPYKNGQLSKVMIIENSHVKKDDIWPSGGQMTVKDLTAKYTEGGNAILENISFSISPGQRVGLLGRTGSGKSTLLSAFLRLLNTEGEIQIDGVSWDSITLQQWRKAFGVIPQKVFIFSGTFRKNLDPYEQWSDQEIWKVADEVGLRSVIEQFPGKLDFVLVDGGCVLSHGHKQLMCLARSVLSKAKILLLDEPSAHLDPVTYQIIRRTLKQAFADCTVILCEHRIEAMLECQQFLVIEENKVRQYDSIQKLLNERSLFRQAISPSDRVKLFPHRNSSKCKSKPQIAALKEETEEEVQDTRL

SMILES: CC(C)(C)c1cccc(C(C)(C)CNC(=O)C2C3CC(F)(F)CN3C3(C(=O)Nc4c(Cl)cc(Cl)cc43)C2C(=O)O)c1 (single isomer, unassigned) [Example 288a, 1′-((2-(3-(tert-butyl)phenyl)-2-methylpropyl)carbamoyl)-5,7-dichloro-6′,6′-difluoro-2-oxo-1′,2′,5′,6′,7′,7a′-hexahydrospiro[indoline-3,3′-pyrrolizine]-2′-carboxylic acid]
- Nauc @ 1 μM [1]: +++ (NAUC “+++” refers to an observed NAUC>170% of positive control)
- Nauc @ 3 μM [2]: +++ (NAUC “+++” refers to an observed NAUC>170% of positive control)
- Nauc @ 10 μM [3]: +++ (NAUC “+++” refers to an observed NAUC>170% of positive control)

SMILES: CN(C(=O)[C@H]1[C@@H](C(F)(F)F)NC2(C(=O)Nc3c(Cl)cc(Cl)cc32)[C@H]1C(=O)O)c1cc(Cl)cc(Cl)c1 (single isomer, unassigned) [Example 269b]
- Nauc @ 1 μM [4]: ++ (NAUC “++” refers to an observed NAUC 170-140% of positive control)
- Nauc @ 1 μM [1]: +++ (NAUC “+++” refers to an observed NAUC>170% of positive control)
- Nauc @ 3 μM [5]: +++ (NAUC “+++” refers to an observed NAUC>170% of positive control)
- Nauc @ 3 μM [2]: +++ (NAUC “+++” refers to an observed NAUC>170% of positive control)
- Nauc @ 10 μM [6]: +++ (NAUC “+++” refers to an observed NAUC>170% of positive control)
- Nauc @ 10 μM [3]: +++ (NAUC “+++” refers to an observed NAUC>170% of positive control)

SMILES: CC(C)(C)CN(C(=O)[C@H]1[C@H]2CC(F)(F)CN2[C@]2(C(=O)Nc3c(Cl)cc(Cl)cc32)[C@H]1C(=O)O)c1cc(Cl)cc(Cl)c1 [Example 110, (1′R,2′S,3R,7a′R)-5,7-dichloro-1-((3,5-dichlorophenyl)(neopentyl)carbamoyl)-6′,6′-difluoro-2-oxo-1′,2′,5′,6′,7′,7a′-hexahydrospiro[indoline-3,3′-pyrrolizine]-2′-carboxylic acid]
- Nauc @ 1 μM [4]: +++ (NAUC “+++” refers to an observed NAUC>170% of positive control)
- Nauc @ 3 μM [5]: +++ (NAUC “+++” refers to an observed NAUC>170% of positive control)
- Nauc @ 10 μM [6]: + (NAUC “+” refers to an observed NAUC <140% of positive control)

SMILES: COc1c(Cl)cc(N(C)C(=O)[C@H]2[C@H]3CC(F)(F)CN3C3(C(=O)Nc4c(Cl)cc(Cl)cc43)[C@H]2C(=O)O)cc1Cl (stereo partly drawn) [Example 291]
- Nauc @ 1 μM [1]: + (NAUC “+” refers to an observed NAUC <140% of positive control)
- Nauc @ 3 μM [2]: + (NAUC “+” refers to an observed NAUC <140% of positive control)
- Nauc @ 10 μM [3]: +++ (NAUC “+++” refers to an observed NAUC>170% of positive control)

SMILES: Cc1ccccc1CCNC(=O)C1C2CC(F)(F)CN2C2(C(=O)Nc3c(Cl)cc(Cl)cc32)C1C(=O)O (stereo not drawn) [Example 47]
- Nauc @ 3 μM [2]: ++ (NAUC “++” refers to an observed NAUC 170-140% of positive control)
- Nauc @ 10 μM [3]: +++ (NAUC “+++” refers to an observed NAUC>170% of positive control)

SMILES: O=C(O)[C@H]1[C@@H](C(=O)N(CC2CCCCC2)c2cc(Cl)cc(Cl)c2)[C@H]2CC(F)(F)CN2[C@]12C(=O)Nc1c(Cl)cc(Cl)cc12 [Example 177]
- Nauc @ 1 μM [4]: +++ (NAUC “+++” refers to an observed NAUC>170% of positive control)
- Nauc @ 3 μM [5]: ++ (NAUC “++” refers to an observed NAUC 170-140% of positive control)
- Nauc @ 10 μM [6]: ++ (NAUC “++” refers to an observed NAUC 170-140% of positive control)

SMILES: CN(C(=O)[C@H]1[C@@H](C(=O)O)[C@]2(C(=O)Nc3c(Cl)cc(Cl)cc32)N2CC(F)(F)C[C@@H]12)c1cc(Cl)cc(Cl)c1F (single isomer, unassigned) [Example 265a]
- Nauc @ 1 μM [1]: + (NAUC “+” refers to an observed NAUC <140% of positive control)
- Nauc @ 3 μM [2]: +++ (NAUC “+++” refers to an observed NAUC>170% of positive control)
- Nauc @ 10 μM [3]: +++ (NAUC “+++” refers to an observed NAUC>170% of positive control)

SMILES: C[C@]1(O)CC2C(C(=O)Nc3cc(Cl)c(OC(F)F)c(Cl)c3)C(C(=O)O)C3(C(=O)Nc4c(Cl)cc(Cl)cc43)N2C1 (stereo partly drawn) [Example 4]
- Nauc @ 3 μM [2]: +++ (NAUC “+++” refers to an observed NAUC>170% of positive control)
- Nauc @ 10 μM [3]: +++ (NAUC “+++” refers to an observed NAUC>170% of positive control)

SMILES: O=C1C2C(C(F)(F)F)NC3(C(=O)Nc4c(Cl)cc(Cl)cc43)C2C(=O)N1c1cc(Cl)cc(Cl)c1 (single isomer, unassigned) [Example 81, 5,7-dichloro-4′4(3,5-dichlorophenyl)carbamoyl)-1-methyl-2-oxo-5′-(trifluoromethyl)spiro[indoline-3,2′-pyrrolidinel-3′-carboxylic acid]
- Nauc @ 1 μM [1]: + (NAUC “+” refers to an observed NAUC <140% of positive control)
- Nauc @ 3 μM [2]: ++ (NAUC “++” refers to an observed NAUC 170-140% of positive control)
- Nauc @ 10 μM [3]: + (NAUC “+” refers to an observed NAUC <140% of positive control)

SMILES: Cc1ccc(CCNC(=O)C2C3CC(F)(F)CN3C3(C(=O)Nc4c(Cl)cc(Cl)cc43)C2C(=O)O)cc1 (stereo not drawn) [Example 49]
- Nauc @ 3 μM [2]: ++ (NAUC “++” refers to an observed NAUC 170-140% of positive control)
- Nauc @ 10 μM [3]: +++ (NAUC “+++” refers to an observed NAUC>170% of positive control)
